According to US11096910B2, “Metabolically robust analogs of CYP-eicosanoids for the treatment of cardiac disease” (OMEICOS THERAPEUTICS GMBH, priority 2015, dated 2021):

How the values were obtained:
[1] = tested on: mouse neonatal primary cardiomyocyte culture; assay: Oxygen-glucose deprivation/reoxygenation injury in primary cardiomyocytes; type: cell-based; conditions: for amelioration of loss of cell number: Hoechst 33342 staining; for reduction of apoptosis: caspase 3/7 activation
Procedure: In vitro ischemic injury was induced in mouse neonatal primary cardiomyocyte culture by oxygen-glucose deprivation for 18 hours and a 24 hours reoxygenation period in a humidified incubator with 5% CO2/95% air. Cardiomyocytes were incubated with the test compounds during 4 hours prior to the oxygen glucose depriviation (OGD) induction. The test compounds were also present during the OGD insult and during the 24 h-reoxygenation period. After the reoxygenation period, cell number was assessed by Hoechst 33342 staining, apoptosis was measured by determining caspase 3/7 activation, and cell membrane integrity or necrosis was measured as LDH release.
Data were expressed as mean±SD of three separate wells and individual comparisons were made with Student's t-test (SigmaPlot 9.0 program). The results were normalized to the normoxia-treated cells. Statistical significance (*) p<0.05 as compared to normoxia/DMSO-treated cells and (§) hypoxia/DMSO treated cells. Results

[2] = tested on: spontaneously beating neonatal rat cardiomyocytes (NRCMs); assay: Spontaneous beating rate of neonatal rat cardiomyocytes (anti-arrhythmic cell model); type: cell-based; conditions: 20 nM or 30 nM; comparison between analogs
Procedure: The compounds include analogues being part of the invention (Comp-01 to Comp-05), which were synthesized as described in example 1, and additional related compounds (Comp-06 to Comp-13). A 1000-fold stock solutions in ethanol of the test compounds was prepared before use.
In order to measure the biological activities of metabolically robust analogs of CYP-eicosanoids an established cell model was used (Kang, J. X. et al., Proc Natl Acad Sci USA, 1994. 91(21): p. 9886-90). The spontaneously beating neonatal rat cardiomyocytes (NRCMs) are a model system to investigate anti-arrhythmic effects of test-compounds. […]
Isolation and cultivation of NRCMs were performed as described previously (Wallukat, G et al., J Clin Invest. 1999; 103: 945-952; Falck, J R et al., J Med Chem. 2011 Jun. 23; 54(12):4109-18). […] After four hours of incubation cells were adopted for 10 min to 31° C. and beating was recorded using an inverted microscope (Leica DM IRB) equipped with a CCD camera and coupled to an IonOptix (software: IonWizard6, IonOptix). To determine the basal rate, 6 to 8 individual clusters were selected and the number of contractions was counted for 15 sec. After that, the compound to be tested was added to the culture and the beating rate of the same clusters was monitored 5 min later again. […]

Structure (SMILES)	reduction of cellular necrosis (LDH-release) ([1]; 30 nM) [%]	amelioration of loss of cell number ([1]; 30 nM)	reduction of apoptosis ([1]; 30 nM)	reduction of cellular necrosis (LDH-release) ([1]; 10 μM) [%]	amelioration of loss of cell number ([1]; 10 μM)	reduction of apoptosis ([1]; 10 μM) [%]	negative chronotropic effect on NRCMs, in words [2]
CCC1OC1C/C=C\C/C=C\C/C=C\C/C=C\CCCC(=O)O (stereo not shown) [17,18-EEQ, reference compound]	41	did not significantly affect cell number	not at the low concentration tested	37	did not significantly affect cell number	43	–
CNC(=O)C(=O)NCCCCc1ccccc1CCCCCCOCC(=O)O [Comp-05]	–	–	–	–	–	–	without major loss of activity
